Reference: the NIST ThermoML archive (doi:10.1021/je500977g)
± gives the expanded uncertainty stated by the source.

Assay: mn = molality of the nth substance listed, in mol/kg
Settings: Liquid

C[N+](C)(C)[O-] [trimethylamine oxide] + O
mass density [kg/m3]
Settings | 298.15 K | 308.15 K | 323.15 K
101 kPa, Vibrating tube method, m1 = 0.0875 | – | 994.21 ± 0.05 | 988.2 ± 0.05
101 kPa, Vibrating tube method, m1 = 0.1707 | – | 994.38 ± 0.05 | 988.37 ± 0.05
101 kPa, Vibrating tube method, m1 = 0.2465 | – | 994.54 ± 0.05 | 988.53 ± 0.05
101 kPa, Vibrating tube method, m1 = 0.3259 | – | 994.71 ± 0.05 | 988.7 ± 0.05
101 kPa, Vibrating tube method, m1 = 0.4018 | – | 994.88 ± 0.05 | 988.86 ± 0.05
101 kPa, Vibrating tube method, m1 = 0.5862 | – | 995.31 ± 0.05 | 989.27 ± 0.05
101 kPa, Vibrating tube method, m1 = 0.7963 | – | 995.8 ± 0.05 | 989.75 ± 0.05
101 kPa, Vibrating tube method, m1 = 1.039 | – | 996.41 ± 0.05 | 990.34 ± 0.05
101 kPa, Vibrating tube method, m1 = 1.373 | – | 997.27 ± 0.05 | 991.15 ± 0.05
101 kPa, Vibrating tube method, m1 = 1.923 | – | 998.77 ± 0.05 | 992.62 ± 0.05
101 kPa, Vibrating tube method, m1 = 3.259 | – | 1002.83 ± 0.06 | 996.37 ± 0.06
101 kPa, Vibrating tube method, m1 = 4.325 | – | 1006.27 ± 0.06 | 999.45 ± 0.06
10000 kPa, Constant-volume piezometry, m1 = 0.1707 | – | 998.64 ± 0.18 | 992.59 ± 0.19
10000 kPa, Constant-volume piezometry, m1 = 0.3259 | – | 998.93 ± 0.18 | 992.87 ± 0.19
10000 kPa, Constant-volume piezometry, m1 = 0.5862 | – | 999.44 ± 0.18 | 993.35 ± 0.19
10000 kPa, Constant-volume piezometry, m1 = 1.039 | – | 1000.4 ± 0.18 | 994.29 ± 0.19
10000 kPa, Constant-volume piezometry, m1 = 1.373 | – | 1001.17 ± 0.18 | 995.02 ± 0.19
10000 kPa, Constant-volume piezometry, m1 = 1.923 | – | 1002.54 ± 0.18 | 996.38 ± 0.2
10000 kPa, Constant-volume piezometry, m1 = 3.259 | – | 1006.31 ± 0.19 | 999.89 ± 0.2
10000 kPa, Constant-volume piezometry, m1 = 4.325 | – | 1009.52 ± 0.19 | 1002.81 ± 0.21
25000 kPa, Constant-volume piezometry, m1 = 0.1707 | – | 1004.94 ± 0.28 | 998.81 ± 0.3
25000 kPa, Constant-volume piezometry, m1 = 0.3259 | – | 1005.15 ± 0.28 | 999.01 ± 0.3
25000 kPa, Constant-volume piezometry, m1 = 0.5862 | – | 1005.53 ± 0.28 | 999.37 ± 0.3
25000 kPa, Constant-volume piezometry, m1 = 1.039 | – | 1006.27 ± 0.28 | 1000.14 ± 0.3
25000 kPa, Constant-volume piezometry, m1 = 1.373 | – | 1006.92 ± 0.28 | 1000.75 ± 0.3
25000 kPa, Constant-volume piezometry, m1 = 1.923 | – | 1008.08 ± 0.29 | 1001.93 ± 0.3
25000 kPa, Constant-volume piezometry, m1 = 3.259 | 1015.13 ± 0.28 | 1011.45 ± 0.29 | 1005.1 ± 0.31
25000 kPa, Constant-volume piezometry, m1 = 4.325 | 1018.32 ± 0.29 | 1014.35 ± 0.3 | 1007.83 ± 0.32
50000 kPa, Constant-volume piezometry, m1 = 0.1707 | 1018.48 ± 0.47 | 1015.02 ± 0.48 | 1008.75 ± 0.5
50000 kPa, Constant-volume piezometry, m1 = 0.3259 | 1018.55 ± 0.47 | 1015.1 ± 0.48 | 1008.83 ± 0.5
50000 kPa, Constant-volume piezometry, m1 = 0.5862 | 1018.73 ± 0.47 | 1015.28 ± 0.48 | 1009.01 ± 0.5
50000 kPa, Constant-volume piezometry, m1 = 1.039 | 1019.17 ± 0.48 | 1015.72 ± 0.49 | 1009.49 ± 0.5
50000 kPa, Constant-volume piezometry, m1 = 1.373 | 1019.6 ± 0.48 | 1016.14 ± 0.49 | 1009.9 ± 0.5
50000 kPa, Constant-volume piezometry, m1 = 1.923 | 1020.48 ± 0.48 | 1016.98 ± 0.49 | 1010.79 ± 0.5
50000 kPa, Constant-volume piezometry, m1 = 3.259 | 1023.44 ± 0.49 | 1019.69 ± 0.5 | 1013.38 ± 0.51
50000 kPa, Constant-volume piezometry, m1 = 4.325 | 1026.18 ± 0.49 | 1022.07 ± 0.5 | 1015.77 ± 0.52
75000 kPa, Constant-volume piezometry, m1 = 0.1707 | 1028.27 ± 0.68 | 1024.62 ± 0.69 | 1018.2 ± 0.7
75000 kPa, Constant-volume piezometry, m1 = 0.3259 | 1028.22 ± 0.68 | 1024.58 ± 0.69 | 1018.18 ± 0.7
75000 kPa, Constant-volume piezometry, m1 = 0.5862 | 1028.19 ± 0.68 | 1024.56 ± 0.69 | 1018.19 ± 0.7
75000 kPa, Constant-volume piezometry, m1 = 1.039 | 1028.3 ± 0.68 | 1024.68 ± 0.69 | 1018.41 ± 0.7
75000 kPa, Constant-volume piezometry, m1 = 1.373 | 1028.51 ± 0.68 | 1024.9 ± 0.69 | 1018.64 ± 0.7
75000 kPa, Constant-volume piezometry, m1 = 1.923 | 1029.06 ± 0.68 | 1025.43 ± 0.69 | 1019.23 ± 0.71
75000 kPa, Constant-volume piezometry, m1 = 3.259 | 1031.32 ± 0.69 | 1027.51 ± 0.7 | 1021.32 ± 0.71
75000 kPa, Constant-volume piezometry, m1 = 4.325 | 1033.57 ± 0.7 | 1029.5 ± 0.71 | 1023.38 ± 0.72
100000 kPa, Constant-volume piezometry, m1 = 0.1707 | 1037.61 ± 0.89 | 1033.77 ± 0.9 | 1027.22 ± 0.91
100000 kPa, Constant-volume piezometry, m1 = 0.3259 | 1037.41 ± 0.89 | 1033.59 ± 0.9 | 1027.09 ± 0.91
100000 kPa, Constant-volume piezometry, m1 = 0.5862 | 1037.18 ± 0.89 | 1033.39 ± 0.9 | 1026.94 ± 0.91
100000 kPa, Constant-volume piezometry, m1 = 1.039 | 1036.99 ± 0.89 | 1033.25 ± 0.9 | 1026.92 ± 0.91
100000 kPa, Constant-volume piezometry, m1 = 1.373 | 1036.98 ± 0.89 | 1033.26 ± 0.9 | 1027 ± 0.91
100000 kPa, Constant-volume piezometry, m1 = 1.923 | 1037.22 ± 0.89 | 1033.48 ± 0.9 | 1027.3 ± 0.91
100000 kPa, Constant-volume piezometry, m1 = 3.259 | 1038.74 ± 0.9 | 1034.99 ± 0.91 | 1028.88 ± 0.92
100000 kPa, Constant-volume piezometry, m1 = 4.325 | 1040.54 ± 0.9 | 1036.64 ± 0.91 | 1030.78 ± 0.93
